# Organism: Rattus norvegicus
# Assay: Open TG-GATES - Regimen: Single
# Type: toxicity, organism-based, Sprague-Dawley
# Parameters: regimen Single, gender Male, age 6 weeks
# Settings: in vivo, po, 10 mg/kg, route gavage, dose level High; for APTT / Bas / Eos / Fbg / Hb / Ht / Lym / MCH / MCHC / MCV / Mono / Neu / PT / Plat / RBC / Ret / WBC: tissue Blood; for KIDNEY_L / KIDNEY_R / KIDNEY_TOTAL: tissue Kidney; for LIVER: tissue Liver; for A/G / ALP / ALT / AST / BUN / CRE / Ca / Cl / DBIL / GLC / IP / K / LDH / Na / PL / RALB / TBIL / TC / TG / TP / gamma-GTP: tissue Plasma
smiles,measurement,setting,value
CN1C(C(=O)Nc2ccccn2)=C(O)c2sc(Cl)cc2S1(=O)=O [LORNOXICAM],TERMINAL_BW,3 h,225.5 g
same,APTT,3 h,20.6 s
same,Bas,3 h,0.6%
same,Eos,3 h,1%
same,Fbg,3 h,212.8 mg/dL
same,Hb,3 h,13.3 g/dL
same,Ht,3 h,40.2%
same,Lym,3 h,76%
same,MCH,3 h,20.9 pg
same,MCHC,3 h,33.3%
same,MCV,3 h,63 fL
same,Mono,3 h,2.8%
same,Neu,3 h,19.2%
same,PT,3 h,11.8 s
same,Plat,3 h,112.2 x10_4/uL
same,RBC,3 h,638.8 x10_4/ul
same,Ret,3 h,7.5%
same,WBC,3 h,112.4 x10_2/uL
same,KIDNEY_L,3 h,1 g
same,KIDNEY_R,3 h,1 g
same,KIDNEY_TOTAL,3 h,1.9 g
same,LIVER,3 h,10.3 g
same,A/G,3 h,1.8
same,ALP,3 h,965.2 IU/L
same,ALT,3 h,42.2 IU/L
same,AST,3 h,79.2 IU/L
same,BUN,3 h,13.4 mg/dL
same,CRE,3 h,0.4 mg/dL
same,Ca,3 h,10.7 mg/dL
same,Cl,3 h,104.4 meq/L
same,DBIL,3 h,0.074 mg/dL
same,GLC,3 h,193.6 mg/dL
same,IP,3 h,9 mg/dL
same,K,3 h,4.1 meq/L
same,LDH,3 h,188.8 IU/L
same,Na,3 h,142.2 meq/L
same,PL,3 h,139.2 mg/dL
same,RALB,3 h,3.5 g/dL
same,TBIL,3 h,0.1 mg/dL
same,TC,3 h,76.8 mg/dL
same,TG,3 h,38.2 mg/dL
same,TP,3 h,5.5 g/dL
same,gamma-GTP,3 h,0.6 IU/L
same,TERMINAL_BW,6 h,223.7 g
same,APTT,6 h,19.5 s
same,Bas,6 h,0.6%
same,Eos,6 h,0.8%
same,Fbg,6 h,229.2 mg/dL
same,Hb,6 h,13.2 g/dL
same,Ht,6 h,39.3%
same,Lym,6 h,76.8%
same,MCH,6 h,20.5 pg
same,MCHC,6 h,33.6%
same,MCV,6 h,60.9 fL
same,Mono,6 h,2.8%
same,Neu,6 h,18.6%
same,PT,6 h,12.1 s
same,Plat,6 h,129.2 x10_4/uL
same,RBC,6 h,644.8 x10_4/ul
same,Ret,6 h,6.7%
same,WBC,6 h,96.3 x10_2/uL
same,KIDNEY_L,6 h,1 g
same,KIDNEY_R,6 h,1 g
same,KIDNEY_TOTAL,6 h,2 g
same,LIVER,6 h,9.6 g
same,A/G,6 h,1.6
same,ALP,6 h,989.2 IU/L
same,ALT,6 h,46.8 IU/L
same,AST,6 h,78.6 IU/L
same,BUN,6 h,12.8 mg/dL
same,CRE,6 h,0.3 mg/dL
same,Ca,6 h,10.5 mg/dL
same,Cl,6 h,104.8 meq/L
same,DBIL,6 h,0.072 mg/dL
same,GLC,6 h,196.2 mg/dL
same,IP,6 h,8.6 mg/dL
same,K,6 h,3.9 meq/L
same,LDH,6 h,219 IU/L
same,Na,6 h,141.8 meq/L
same,PL,6 h,137 mg/dL
same,RALB,6 h,3.5 g/dL
same,TBIL,6 h,0.1 mg/dL
same,TC,6 h,75.8 mg/dL
same,TG,6 h,56.4 mg/dL
same,TP,6 h,5.6 g/dL
same,gamma-GTP,6 h,1 IU/L
same,TERMINAL_BW,9 h,221.8 g
same,APTT,9 h,18.9 s
same,Bas,9 h,0.4%
same,Eos,9 h,0.8%
same,Fbg,9 h,215.6 mg/dL
same,Hb,9 h,13.2 g/dL
same,Ht,9 h,39.2%
same,Lym,9 h,63.6%
same,MCH,9 h,21.1 pg
same,MCHC,9 h,33.7%
same,MCV,9 h,62.6 fL
same,Mono,9 h,4.2%
same,Neu,9 h,30.6%
same,PT,9 h,12.5 s
same,Plat,9 h,113.4 x10_4/uL
same,RBC,9 h,627.4 x10_4/ul
same,Ret,9 h,7%
same,WBC,9 h,97.9 x10_2/uL
same,KIDNEY_L,9 h,1 g
same,KIDNEY_R,9 h,1 g
same,KIDNEY_TOTAL,9 h,2 g
same,LIVER,9 h,9.3 g
same,A/G,9 h,1.7
same,ALP,9 h,755.2 IU/L
same,ALT,9 h,35.6 IU/L
same,AST,9 h,69.8 IU/L
same,BUN,9 h,13.8 mg/dL
same,CRE,9 h,0.3 mg/dL
same,Ca,9 h,10.5 mg/dL
same,Cl,9 h,103.6 meq/L
same,DBIL,9 h,0.08 mg/dL
same,GLC,9 h,188 mg/dL
same,IP,9 h,9.1 mg/dL
same,K,9 h,4.1 meq/L
same,LDH,9 h,195.6 IU/L
same,Na,9 h,141.4 meq/L
same,PL,9 h,130.8 mg/dL
same,RALB,9 h,3.3 g/dL
same,TBIL,9 h,0.1 mg/dL
same,TC,9 h,67.6 mg/dL
same,TG,9 h,59.2 mg/dL
same,TP,9 h,5.3 g/dL
same,gamma-GTP,9 h,1.2 IU/L
same,TERMINAL_BW,24 h,236.6 g
same,APTT,24 h,21.2 s
same,Bas,24 h,0.2%
same,Eos,24 h,0.4%
same,Fbg,24 h,261 mg/dL
same,Hb,24 h,12.8 g/dL
same,Ht,24 h,38.5%
same,Lym,24 h,54%
same,MCH,24 h,20.9 pg
same,MCHC,24 h,33.2%
same,MCV,24 h,63.1 fL
same,Mono,24 h,4%
same,Neu,24 h,39.6%
same,PT,24 h,12 s
same,Plat,24 h,119.9 x10_4/uL
same,RBC,24 h,610.2 x10_4/ul
same,Ret,24 h,6.5%
same,WBC,24 h,162.1 x10_2/uL
same,KIDNEY_L,24 h,1.1 g
same,KIDNEY_R,24 h,1.1 g
same,KIDNEY_TOTAL,24 h,2.2 g
same,LIVER,24 h,11.6 g
same,A/G,24 h,1.5
same,ALP,24 h,949.2 IU/L
same,ALT,24 h,38.6 IU/L
same,AST,24 h,69.8 IU/L
same,BUN,24 h,13.4 mg/dL
same,CRE,24 h,0.4 mg/dL
same,Ca,24 h,10.4 mg/dL
same,Cl,24 h,105 meq/L
same,DBIL,24 h,0.1 mg/dL
same,GLC,24 h,203.6 mg/dL
same,IP,24 h,7.6 mg/dL
same,K,24 h,4.1 meq/L
same,LDH,24 h,214.2 IU/L
same,Na,24 h,141.4 meq/L
same,PL,24 h,148.2 mg/dL
same,RALB,24 h,3.1 g/dL
same,TBIL,24 h,0.2 mg/dL
same,TC,24 h,74.6 mg/dL
same,TG,24 h,108.8 mg/dL
same,TP,24 h,5.1 g/dL
same,gamma-GTP,24 h,1 IU/L

# — ChEMBL document CHEMBL3885861, “Open TG-GATES”
